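How tested: cells in 96-well plates exposed to compound for 48 hours at five concentrations. At the GI50, growth is halved.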 Calls of active or inactive are those of the source. Rule as the data show it: active = GI50 up to about 1.1 µM and inactive = higher.
Key:
Test in all cases: growth of human tumour cells (NCI), 48 h
[1] = tested on: SN12C
[2] = tested on: SF-539
[3] = tested on: SK-MEL-28
[4] = tested on: IGROV-1
[5] = tested on: HCC 2998
[6] = tested on: 786-0
[7] = tested on: ACHN
[8] = tested on: KM12
[9] = tested on: TK-10
[10] = tested on: A498
[11] = tested on: UACC-62
[12] = tested on: HT-29
[13] = tested on: NCI-H522
[14] = tested on: SW-620
[15] = tested on: A549
[16] = tested on: SK-MEL-2
[17] = tested on: MOLT-4

Measured: GI50

COC(=O)C(Cc1c[nH]c2ccccc12)NC(=O)C(Cc1c[nH]c2ccccc12)NC(=O)OCc1ccccc1 (centres undefined)
inactive: [1] 17.1 µM | [2] 16.7 µM | [3] 17.7 µM | [4] 19.3 µM | [5] 17.8 µM | [6] 16.2 µM | [7] 21.6 µM | [8] 19.1 µM | [9] 22.8 µM | [10] 72.8 µM | [11] 19.3 µM | [12] 20 µM | [13] 16.3 µM | [14] 17.5 µM | [15] 17.8 µM

CCOC(=O)C1N(S(=O)(=O)c2ccc(C)cc2)CCC12c1ccccc1N(C(C)=O)C2c1ccc(OC)c(OC)c1 (centres undefined)
inactive: [1] > 100 µM | [2] > 100 µM | [3] > 100 µM | [4] > 100 µM | [5] > 100 µM | [6] > 100 µM | [7] > 100 µM | [8] > 100 µM | [9] > 100 µM | [10] > 100 µM | [11] > 100 µM | [12] > 100 µM | [13] > 100 µM | [14] > 100 µM | [15] > 100 µM

COCOCc1cc(OCc2ccccc2)c(OC)cc1Br
inactive: [1] > 100 µM | [2] > 100 µM | [3] > 100 µM | [4] > 100 µM | [6] > 100 µM | [7] 82.6 µM | [8] > 100 µM | [9] > 100 µM | [10] > 100 µM | [11] 71.9 µM | [16] > 100 µM | [12] > 100 µM | [14] > 100 µM | [15] > 100 µM

O=c1[nH]c2c(c3ccccc13)CCc1ccccc1-2
inactive: [1] > 100 µM | [2] > 100 µM | [3] > 100 µM | [4] > 100 µM | [5] > 100 µM | [6] > 100 µM | [7] > 100 µM | [8] > 100 µM | [9] > 100 µM | [11] > 10 µM | [16] > 100 µM | [12] > 100 µM | [13] > 100 µM | [14] > 100 µM | [17] > 100 µM | [15] > 100 µM

COc1ccc(-c2onc(-c3ccc([N+](=O)[O-])cc3)c2C2=NCCN2)cc1
inactive: [1] 67.5 µM | [2] 38 µM | [3] > 100 µM | [4] > 100 µM | [5] > 100 µM | [6] 17 µM | [7] 38.1 µM | [8] > 100 µM | [11] > 100 µM | [16] > 100 µM | [12] 33.3 µM | [13] > 10 µM | [14] > 100 µM | [17] > 100 µM | [15] > 100 µM

COc1c2c(cc3c1C(=O)Cc1ccc4c(c1CN(C)CC3)OCO4)OCO2
inactive: [1] > 100 µM | [2] > 100 µM | [3] > 100 µM | [4] 18.5 µM | [5] > 100 µM | [6] > 100 µM | [7] > 100 µM | [8] > 100 µM | [9] > 100 µM | [11] > 100 µM | [16] > 100 µM | [12] 29.4 µM | [13] > 100 µM | [14] > 100 µM | [17] 36.7 µM | [15] > 100 µM

COc1ccc2c(C(=O)O)cc3ccccc3c2c1OC
inactive: [1] 20.9 µM | [2] 23.7 µM | [3] 18.5 µM | [5] 21.2 µM | [6] 15.7 µM | [7] 16.3 µM | [8] 18.3 µM | [9] 19.1 µM | [10] 18.8 µM | [11] 15.2 µM | [16] 30.5 µM | [12] 21.6 µM | [13] 13.8 µM | [14] 19.4 µM | [17] 32.9 µM | [15] 30 µM

Cc1nc2c(n1CCC(C)C)C(=O)c1ccccc1C2=O
inactive: [1] 23.2 µM | [2] 12 µM | [3] 17.3 µM | [4] 22.3 µM | [5] 40.9 µM | [6] 24.9 µM | [7] 29.9 µM | [8] 21.3 µM | [9] 41.2 µM | [11] 12.2 µM | [16] 17.5 µM | [12] 20.5 µM | [13] 20.5 µM | [14] 37.9 µM | [17] 8.26 µM | [15] 30.4 µM

CN/N=C(\C)CC(=O)Nc1cccc(Cl)c1C
inactive: [1] > 100 µM | [2] > 100 µM | [3] > 100 µM | [4] > 100 µM | [5] > 100 µM | [6] > 100 µM | [7] > 100 µM | [8] > 100 µM | [9] > 100 µM | [10] > 100 µM | [11] > 100 µM | [16] > 100 µM | [12] > 100 µM | [13] 38.6 µM | [17] > 100 µM | [15] > 100 µM

CC[C@](C)(O)C(=O)O[C@H]1C(=O)O[C@@H]2C[C@H]3C(C)=C[C@H](O)[C@@H](O)[C@]3(C)[C@H]3[C@@]4(O)OC[C@]32[C@@H]1[C@@H](C)[C@H]4O
inactive: [1] 73.5 µM | [2] 12.5 µM | [3] 17.3 µM | [4] 7.19 µM | [5] 14.1 µM | [8] 21.6 µM | [10] 30.2 µM | [11] 19.3 µM | [16] 37.7 µM | [12] 29.9 µM | [13] 3.58 µM | [14] 12.4 µM | [17] 6.93 µM | [15] 61.8 µM

Cc1cc2c(=O)c3ccc(Cl)cc3[nH]c2c(C(=O)O)c1C
inactive: [1] > 100 µM | [2] > 100 µM | [3] > 100 µM | [4] > 100 µM | [5] > 100 µM | [6] > 100 µM | [7] > 100 µM | [8] 32.4 µM | [9] > 100 µM | [11] > 100 µM | [16] > 100 µM | [12] > 100 µM | [13] 73.8 µM | [14] > 100 µM | [17] > 100 µM | [15] > 100 µM

CC(C)(C)C(=O)Nc1ccccc1Br
inactive: [1] > 100 µM | [3] > 100 µM | [4] > 100 µM | [5] > 100 µM | [6] > 100 µM | [7] > 100 µM | [8] > 100 µM | [9] > 100 µM | [11] > 100 µM | [16] > 100 µM | [12] > 100 µM | [14] > 100 µM | [17] > 100 µM | [15] > 100 µM

CCCCN(CCCC)CCCn1cnc2ncccc2c1=O
inactive: [1] > 100 µM | [2] > 100 µM | [3] > 100 µM | [4] > 100 µM | [5] > 100 µM | [6] > 100 µM | [7] > 100 µM | [8] > 100 µM | [9] > 100 µM | [11] > 100 µM | [16] > 100 µM | [12] > 100 µM | [13] > 100 µM | [14] > 100 µM | [17] > 100 µM | [15] > 100 µM

CCC(C)CCOC(=O)c1ccc(/N=C\c2ccc(/C=N/c3ccc(C(=O)OCCC(C)CC)cc3)cc2)cc1 (centres undefined)
inactive: [1] > 100 µM | [2] > 100 µM | [3] > 100 µM | [4] > 100 µM | [5] > 100 µM | [6] > 100 µM | [7] > 100 µM | [10] > 100 µM | [11] > 100 µM | [16] > 100 µM | [12] > 100 µM | [13] > 100 µM | [14] > 100 µM | [17] > 100 µM | [15] > 100 µM

CSc1ccc2c(cc1=O)C(NC(=O)c1ccc(OC(C)=O)cc1)CCc1cc(O)c(O)c(O)c1-2 (centres undefined)
inactive: [1] 16.3 µM | [2] 19.1 µM | [3] 61.7 µM | [5] 74.1 µM | [6] 31 µM | [7] 66.8 µM | [8] 32 µM | [9] 91.2 µM | [10] 57 µM | [11] 18.5 µM | [16] 16.2 µM | [12] 19.6 µM | [13] 12.8 µM | [14] 13.1 µM | [17] 5.11 µM | [15] 33.9 µM

CCCN(CCC)c1c([N+](=O)[O-])cc(C(N)=O)cc1[N+](=O)[O-]
inactive: [1] > 100 µM | [2] > 100 µM | [3] > 100 µM | [4] > 100 µM | [5] 91 µM | [6] > 100 µM | [7] > 100 µM | [8] > 100 µM | [9] > 100 µM | [16] 74.5 µM | [12] > 100 µM | [13] 36.7 µM | [17] 37 µM | [15] 81.8 µM

CC12CCC(=O)N1c1ccc([N+](=O)[O-])cc1N2 (centres undefined)
inactive: [1] > 100 µM | [2] > 100 µM | [3] > 100 µM | [4] > 100 µM | [6] > 100 µM | [7] > 100 µM | [8] > 100 µM | [10] > 100 µM | [11] > 100 µM | [16] > 100 µM | [12] > 100 µM | [13] > 100 µM | [14] > 100 µM | [17] 83.4 µM | [15] > 100 µM

Reference: ChEMBL document CHEMBL1201862, “PubChem BioAssay data set” (2004)
